# Measurements: US10059713B2 (Takeda Pharmaceutical Company Limited, priority 2014, dated 2018)
# Biological target: human GPR43 (Homo sapiens (Human), UniProt O15552)
# Assay: Ca-Flux functional assay: determination of agonist/positive allosteric modulator (PAM) activity
# Type: cell-based
# Settings: CHO-K1 Gα16 cells stably expressing human GPR43; compound added with EC20 sodium acetate; intracellular Ca2+ by FLIPR; does not distinguish agonist from PAM
# Experimental: Ca-Flux Functional Assay: Determination of Agonist/Positive Allosteric Modulator (PAM) Activity
# GPR43 agonist/PAM activity was determined by measuring changes in intracellular calcium levels using a Ca^2+ sensitive fluorescent dye. The changes in fluorescent signal were monitored by FLIPR (manufactured by Molecular Devices). GPR43 mediated increases in intracellular Ca^2+ concentration were readily detected upon activation with sodium acetate. Prior to the assay (24 hours), CHO-K1 Gα16 cells stably expressing human GPR43 were-seeded in cell culture medium in black, clear-bottom 384-well plates (Corning Inc) and grown overnight at 37° C., 5% CO2. On the day of the assay, cell culture media was removed and cells were loaded with Calcium 5 Dye (Molecular Devices) diluted in HBSS containing 25 mM HEPES, 2.5 mM Probenecid, 0.1% BSA for 1 hour at 37° C., 5% CO2. 10 point half log concentration response curves of sodium acetate from 10 mM were conducted prior to the testing of compounds to calculate the sodium acetate concentration that produces 20% of the maximal response (EC20). Test compounds (at 10 point half log concentration response curves from 10 μM) were added in the presence of sodium acetate to achieve a final concentration that produces approximately 20% maximal response as calculated from the previous experiment. The changes in fluorescent signal were monitored by FLIPR upon addition of the compound/EC20 sodium acetate mix. The EC50 values were determined from ten point concentration response curves. Curves were generated using the average of two wells for each data point.
# The above assay detects both GPR43 receptor agonists and positive allosteric modulators of the GPR43 receptor, without distinguishing between the two. Activity in either regard is useful in the treatment of conditions associated with GPR43 receptor activity.
# human GPR43, sequence (O15552 whole entry): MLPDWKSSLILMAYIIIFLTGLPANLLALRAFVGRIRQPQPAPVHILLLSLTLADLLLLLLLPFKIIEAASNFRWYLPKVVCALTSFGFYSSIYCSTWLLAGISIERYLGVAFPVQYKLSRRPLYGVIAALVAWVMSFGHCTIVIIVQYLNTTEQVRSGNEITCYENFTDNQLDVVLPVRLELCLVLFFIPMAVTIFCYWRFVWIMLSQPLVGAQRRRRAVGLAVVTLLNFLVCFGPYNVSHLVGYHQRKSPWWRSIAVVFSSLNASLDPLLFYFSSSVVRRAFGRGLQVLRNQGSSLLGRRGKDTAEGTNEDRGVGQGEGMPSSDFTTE
row,SMILES,EC50 [nM]
1,"Nc1[nH]c2c(C3CCCCC3)ncnc2c1S(=O)(=O)C1CCCCC1 [Example 51, 7-(cyclohexanesulfonyl)-4-cyclohexyl-5H-pyrrolo[3,2-d]pyrimidin-6-amine]",162
2,"CN(c1ncnc2c(S(=O)(=O)c3ccccc3)c(N)[nH]c12)C1CCOC(C)(C)C1 (stereo not shown) [Example 189, 7-(benzenesulfonyl)-4-N-(2,2-dimethyloxan-4-yl)-4-N-methyl-5H-pyrrolo[3,2-d]pyrimidine-4,6-diamine]",1970
3,"Nc1[nH]c2c(/C=C/C3CC3)ncnc2c1S(=O)(=O)c1ccccc1 [Example 11, 7-(benzenesulfonyl)-4-[(E)-2-cyclopropylethenyl]-5H-pyrrolo[3,2-d]pyrimidin-6-amine]",112
4,"Nc1[nH]c2c(C3CCCCC3)ncnc2c1S(=O)(=O)c1ccccc1F [Example 89, 4-cyclohexyl-7-(2-fluorobenzenesulfonyl)-5H-pyrrolo[3,2-d]pyrimidin-6-amine]",11
5,"Nc1[nH]c2c(C3=CCCCC3)ncnc2c1S(=O)(=O)c1ccc(F)cc1 [Example 26, 4-(cyclohex-1-en-1-yl)-7-[(4-fluorobenzene)sulfonyl]-5H-pyrrolo[3,2-d]pyrimidin-6-amine]",46
6,"Cc1nc(N2CCOC(C)C2)c2[nH]c(N)c(S(=O)(=O)c3cccc(F)c3)c2n1 (stereo not shown) [Example 180, 7-(3-fluorobenzenesulfonyl)-2-methyl-4-(2-methylmorpholin-4-yl)-5H-pyrrolo[3,2-d]pyrimidin-6-amine]",43
7,"CC(Oc1ncnc2c(S(=O)(=O)c3ccccc3)c(N)[nH]c12)c1ccccc1 (stereo not shown) [Example 164, 7-(benzenesulfonyl)-4-(1-phenylethoxy)-5H-pyrrolo[3,2-d]pyrimidin-6-amine]",25
8,"Nc1[nH]c2cc(Cl)cnc2c1S(=O)(=O)c1ccccc1 [Example 10, 3-(benzenesulfonyl)-6-chloro-1H-pyrrolo[3,2-b]pyridin-2-amine]",626
9,"COCC1CCN(c2ncnc3c(S(=O)(=O)c4ccccc4)c(N)[nH]c23)CC1 [Example 112, 7-(benzenesulfonyl)-4-[4-(methoxymethyl)piperidin-1-yl]-5H-pyrrolo[3,2-d]pyrimidin-6-amine]",818
10,"Cc1nc(N2CCOC3(CC3)C2)c2[nH]c(N)c(S(=O)(=O)c3cccc(F)c3)c2n1 [Example 192, 7-(3-fluorobenzenesulfonyl)-2-methyl-4-{4-oxa-7-azaspiro[2.5]octan-7-yl}-5H-pyrrolo[3,2-d]pyrimidin-6-amine]",31
11,"Cc1nc(N2CCO[C@H](C(F)(F)F)C2)c2[nH]c(N)c(S(=O)(=O)c3ccccc3F)c2n1 [Example 281, 7-(2-fluorobenzenesulfonyl)-2-methyl-4-[(2S)-2-(trifluoromethyl)morpholin-4-yl]-5H-pyrrolo[3,2-d]pyrimidin-6-amine]",1
12,"CSc1nc(N2CCOC(C(F)(F)F)C2)c2[nH]c(N)c(S(=O)(=O)c3ccccc3F)c2n1 (stereo not shown) [Example 301, 7-(2-fluorobenzenesulfonyl)-2-(methylsulfanyl)-4-[2-(trifluoromethyl)morpholin-4-yl]-5H-pyrrolo[3,2-d]pyrimidin-6-amine]",14
13,"CN(c1ncnc2c(S(=O)(=O)c3ccccc3)c(N)[nH]c12)C1CC1 [Example 98, 7-(benzenesulfonyl)-4-N-cyclopropyl-4-N-methyl-5H-pyrrolo[3,2-d]pyrimidine-4,6-diamine]",648
14,"Cc1nc(OC2CC(F)(F)C2)c2[nH]c(N)c(S(=O)(=O)c3ccccc3)c2n1 [Example 259, 7-(benzenesulfonyl)-4-(3,3-difluorocyclobutoxy)-2-methyl-5H-pyrrolo[3,2-d]pyrimidin-6-amine]",66
15,"CC1(C)CN(c2ncnc3c(S(=O)(=O)c4ccccc4)c(N)[nH]c23)CCO1 [Example 84, 7-(benzenesulfonyl)-4-(2,2-dimethylmorpholin-4-yl)-5H-pyrrolo[3,2-d]pyrimidin-6-amine]",29
16,"CCc1nc(C2=CCCCC2)c2[nH]c(N)c(S(=O)(=O)c3ccccc3)c2n1 [Example 41, 7-(benzenesulfonyl)-4-(cyclohex-1-en-1-yl)-2-ethyl-5H-pyrrolo[3,2-d]pyrimidin-6-amine]",37
17,"Cc1nc(N2CCC(F)(F)CC2)c2[nH]c(N)c(S(=O)(=O)c3ccccc3)c2n1 [Example 142, 7-(benzenesulfonyl)-4-(4,4-difluoropiperidin-1-yl)-2-methyl-5H-pyrrolo[3,2-d]pyrimidin-6-amine]",20

row,SMILES,EC50 [nM]
1,"CCN(CC1CCCCC1)c1ncnc2c(S(=O)(=O)c3ccccc3)c(N)[nH]c12 [Example 83, 7-(benzenesulfonyl)-4-N-(cyclohexylmethyl)-4-N-ethyl-5H-pyrrolo[3,2-d]pyrimidine-4,6-diamine]",100
2,"COC[C@H]1CCCN1c1ncnc2c(S(=O)(=O)c3ccccc3)c(N)[nH]c12 [Example 118, 7-(benzenesulfonyl)-4-[(2R)-2-(methoxymethyl)pyrrolidin-1-yl]-5H-pyrrolo[3,2-d]pyrimidin-6-amine]",5180
3,"COC1CCN(c2ncnc3c(S(=O)(=O)c4ccccc4)c(N)[nH]c23)CC1 [Example 28, 7-(benzenesulfonyl)-4-(4-methoxypiperidin-1-yl)-5H-pyrrolo[3,2-d]pyrimidin-6-amine]",647
4,"Nc1[nH]c2c(C3=CCCCC3)cncc2c1S(=O)(=O)c1ccccc1 [Example 16, 3-(benzenesulfonyl)-7-(cyclohex-1-en-1-yl)-1H-pyrrolo[3,2-c]pyridin-2-amine]",21
5,"Nc1[nH]c2c(N3CCC(F)(F)CC3)ncnc2c1S(=O)(=O)c1ccccc1 [Example 24, 7-(benzenesulfonyl)-4-(4,4-difluoropiperidin-1-yl)-5H-pyrrolo[3,2-d]pyrimidin-6-amine]",19
6,"Cc1cc(CN(C)c2ncnc3c(S(=O)(=O)c4ccccc4)c(N)[nH]c23)no1 [Example 99, 7-(benzenesulfonyl)-4-N-methyl-4-N-[(5-methyl-1,2-oxazol-3-yl)methyl]-5H-pyrrolo[3,2-d]pyrimidine-4,6-diamine]",4670
7,"Cc1cc(F)ccc1S(=O)(=O)c1c(N)[nH]c2c(N3CCOC(C)C3)ncnc12 (stereo not shown) [Example 178, 7-(4-fluoro-2-methylbenzenesulfonyl)-4-(2-methylmorpholin-4-yl)-5H-pyrrolo[3,2-d]pyrimidin-6-amine]",676
8,"C=C(C)c1ncnc2c(S(=O)(=O)c3ccccc3)c(N)[nH]c12 [Example 12, 7-(benzenesulfonyl)-4-(prop-1-en-2-yl)-5H-pyrrolo[3,2-d]pyrimidin-6-amine]",355
9,"Nc1[nH]c2c(N3CCOC(C(F)(F)F)C3)ncnc2c1S(=O)(=O)c1ccccc1F (stereo not shown) [Example 302, 7-(2-fluorobenzenesulfonyl)-4-[2-(trifluoromethyl)morpholin-4-yl]-5H-pyrrolo[3,2-d]pyrimidin-6-amine]",2
10,"Cc1nc(N2CCOC(C)C2)c2[nH]c(N)c(S(=O)(=O)c3ccccc3)c2n1 (stereo not shown) [Example 111, 7-(benzenesulfonyl)-2-methyl-4-(2-methylmorpholin-4-yl)-5H-pyrrolo[3,2-d]pyrimidin-6-amine]",19
11,"CCOC1CCCN(c2ncnc3c(S(=O)(=O)c4ccccc4)c(N)[nH]c23)C1 (stereo not shown) [Example 113, 7-(benzenesulfonyl)-4-(3-ethoxypiperidin-1-yl)-5H-pyrrolo[3,2-d]pyrimidin-6-amine]",858
12,"COC1CCCN(c2ncnc3c(S(=O)(=O)c4ccccc4)c(N)[nH]c23)C1 (stereo not shown) [Example 105, 7-(benzenesulfonyl)-4-(3-methoxypiperidin-1-yl)-5H-pyrrolo[3,2-d]pyrimidin-6-amine]",207
13,"Cc1nc(N2C[C@@H](C)O[C@@H](C)C2)c2[nH]c(N)c(S(=O)(=O)c3ccccc3F)c2n1 [Example 187, 4-[(2R,6S)-2,6-dimethylmorpholin-4-yl]-7-(2-fluorobenzenesulfonyl)-2-methyl-5H-pyrrolo[3,2-d]pyrimidin-6-amine]",5
14,"Nc1[nH]c2c(C3CCCCC3)ncnc2c1S(=O)(=O)c1cccc(F)c1 [Example 39, 4-cyclohexyl-7-[(3-fluorobenzene)sulfonyl]-5H-pyrrolo[3,2-d]pyrimidin-6-amine]",80
15,"CCC(CC)Oc1nc(C)nc2c(S(=O)(=O)c3ccccc3)c(N)[nH]c12 [Example 248, 7-(benzenesulfonyl)-2-methyl-4-(pentan-3-yloxy)-5H-pyrrolo[3,2-d]pyrimidin-6-amine]",22
16,"CCN(CC1CCOCC1)c1ncnc2c(S(=O)(=O)c3ccccc3)c(N)[nH]c12 [Example 188, 7-(benzenesulfonyl)-4-N-ethyl-4-N-(oxan-4-ylmethyl)-5H-pyrrolo[3,2-d]pyrimidine-4,6-diamine]",2660
17,"Cc1nc(N2CCO[C@H](C(F)(F)F)C2)c2[nH]c(N)c(S(=O)(=O)c3ccc(F)cc3F)c2n1 [Example 283, 7-(2,4-difluorobenzenesulfonyl)-2-methyl-4-[(2S)-2-(trifluoromethyl)morpholin-4-yl]-5H-pyrrolo[3,2-d]pyrimidin-6-amine]",1
